According to US20130296392A1, “METHODS FOR THE TREATMENT OF OVERACTIVE BLADDER” (THERAVIDA, INC., priority 2012, published 2013):

Legend:
healthy individuals [1] = assay: Dry mouth assessment by visual analog scale (VAS); format: in vivo, human; settings: for Change from Baseline of Dry Mouth Assessment (VAS), Mean: VAS 0=not dry, 10=very dry
Method: Stimulated salivary flow (SSF) and dry mouth (assessed using a “visual analog scale,” or VAS) were determined at frequent intervals after administration of each treatment. Urine frequency, urine volume/void, and fluid volume consumed were also assessed for each treatment.
The SSF values were tabulated at each time point and descriptive statistics were generated by treatment, for measured values and changes from pre-dose baseline. Total weight of saliva over time was analyzed using analysis of variance, with Tukey's method of comparison between treatments. Dry mouth was tabulated at each time point and descriptive statistics were generated by treatment, for measured values and changes from pre-dose baseline. Urine frequency, urine volume/void and fluid volume consumed were tabulated and summarized by treatment.
For qualitative assessment of dry mouth, the “visual analog scale,” or VAS, scale (0=not dry, 10=very dry, measured in centimeters) was used. Each subject was asked to mark a vertical line the VAS scale on how dry their mouth was at that moment.
VAS is a well-known method. In this method, subjects were shown a line scaled from 0 to 10 cm. Subjects were asked to rate the subjective criterion from 0-10 cm and make a mark on the line corresponding to their rating. For example, subjects were told that 0 cm on the line means no dry mouth at all and 10 cm on the line means extreme dry mouth. The subjects rated their extent of dry mouth on the line. Changes in the extent of dry mouth of a subject were measured using this technique throughout the treatment period.

healthy individuals [2] = assay: Stimulated salivary flow (SSF), change from pre-dose baseline; format: in vivo, human
Method: Stimulated salivary flow (SSF) and dry mouth (assessed using a “visual analog scale,” or VAS) were determined at frequent intervals after administration of each treatment. Urine frequency, urine volume/void, and fluid volume consumed were also assessed for each treatment. […] SSF was measured in the following manner. […] The subject may have expectorated saliva in the containers several times if there was excessive saliva. The SSF values were tabulated at each time point and descriptive statistics were generated by treatment, for measured values and changes from pre-dose baseline. Total weight of saliva over time was analyzed using analysis of variance, with Tukey's method of comparison between treatments. Dry mouth was tabulated at each time point and descriptive statistics were generated by treatment, for measured values and changes from pre-dose baseline. Urine frequency, urine volume/void and fluid volume consumed were tabulated and summarized by treatment.

SMILES | Change from Baseline of Dry Mouth Assessment (VAS), Mean (healthy individuals [1]; 1 hour post-dose) | Change from Baseline of Dry Mouth Assessment (VAS), Mean (healthy individuals [1]; 2 hours post-dose) | Change from Baseline of Dry Mouth Assessment (VAS), Mean (healthy individuals [1]; 3 hours post-dose) | Change from Baseline of Dry Mouth Assessment (VAS), Mean (healthy individuals [1]; 4 hours post-dose) | Change from Baseline of Dry Mouth Assessment (VAS), Mean (healthy individuals [1]; 6 hours post-dose) | Change from Baseline of Dry Mouth Assessment (VAS), Mean (healthy individuals [1]; […] post-dose) | Mean SSF Change from Pre-dose Baseline (healthy individuals [2]; 1 hour post-dose) | Mean SSF Change from Pre-dose Baseline (healthy individuals [2]; 2 hours post-dose) | Mean SSF Change from Pre-dose Baseline (healthy individuals [2]; 3 hours post-dose) | Mean SSF Change from Pre-dose Baseline (healthy individuals [2]; 4 hours post-dose) | Mean SSF Change from Pre-dose Baseline (healthy individuals [2]; 6 hours post-dose) | Mean SSF Change from Pre-dose Baseline (healthy individuals [2]; 9 hours post-dose) | Mean SSF Change from Pre-dose Baseline (healthy individuals [2]; 12 hours post-dose) | SSF after administration, in words (healthy individuals [2]; compared with placebo and pilocarpine alone (Treatment B)) | Mean VAS scores of dry mouth over time (healthy individuals [1]; 1 hour and 2 hour time points, compared with each of the other treatments)
Cc1ccc(O)c([C@H](CCN(C(C)C)C(C)C)c2ccccc2)c1 [Treatment A, tolterodine] | 0.03 cm | 0.63 cm | 0.97 cm | 0.56 cm | 0.00 cm | 0.56 cm | -0.3 g | -0.42 g | -0.28 g | 0.05 g | 0.21 g | -0.06 g | 0.27 g | decrease in SSF | –
CC[C@@H]1C(=O)OC[C@@H]1Cc1cncn1C [Treatment B, pilocarpine] | −3.00 cm | −2.34 cm | −0.94 cm | −0.69 cm | −0.41 cm | −1.38 cm | 4.55 g | 2.33 g | 1.07 g | 0.64 g | 0.32 g | -0.20 g | -0.08 g | – | markedly lower
